Converted amounts (≈) assume the structure as drawn. Where two headings read alike, the source gives them in different places.
How the values were obtained:
XDR-TB clinical isolates = test: microbe, parasite or virus in culture; assay type: cell-based, Mycobacterium tuberculosis; conditions: for MIC: Mycobacterium tuberculosis
[1] = tested on: Mycobacterium tuberculosis H37Rv; test: microplate Alamar blue assay (MABA), MIC; assay type: cell-based; conditions: replicating H37Rv
Mycobacterium avium = test: microdilution plate assay, MIC; assay type: cell-based
Vero cells = test: cytotoxicity, MTT assay; assay type: cell-based; conditions: Chlorocebus sabaeus, Vero; cytotoxicity; read-out: IC50 Vero
Procedure: The compounds were examined for toxicity (IC50) using MTT assay. Briefly, cells (3 ~ 5 × 10^3 cells/well) were seeded in a 96-well plate. After 24 h incubation, the cells were treated with various concentrations of drugs for 24, 48, 72 h, respectively. Columns one and two in the assay plates contained-media +0.1% DMSO for a negative control ,Then, 20 μl of a 5 mg/mL MTT solution was added to each well, and the plates were incubated for an additional 2~4 h at 37 °C. The medium was subsequently discarded, and DMSO 150 μL was added to dissolve the formazan. Oscillate 15 min, the OD 570 was measured using a Spectra MAX M5 microplate spectrophotometer (Molecular Devices, CA, USA), and the IC50 values were calculated.
Compound MIC was conducted by ShangHai Chempartner Co., Ltd (Shanghai, China) using the microplate Alamar Blue assay (MABA) against Mycobacterium tuberculosis H37Ra (ATCC 25177). Cytotoxicity of tested compounds was assessed on Vero cells.

MDR-TB clinical isolates = test: microbe, parasite or virus in culture; assay type: cell-based; conditions: Mycobacterium tuberculosis
M. tuberculosis H37Rv = test: MABA checkerboard synergy assay; assay type: cell-based, Mycobacterium tuberculosis; conditions: for MIC: Mycobacterium tuberculosis, H37RV, 336 h, checkerboard, drug alone, read-out: MIC against H37Rv, MIC alone; for MIC against H37Rv, MIC in combo.: in combination with TB1001
[2] = read-out: MIC, XDR-TB strain X15
[3] = read-out: MIC, XDR-TB strain X17
[4] = read-out: MIC, MDR-TB strain M3
[5] = read-out: MIC, MDR-TB strain M4
[6] = read-out: MIC, MDR-TB strain M8
[7] = read-out: MIC, MDR-TB strain M18
[8] = clinical isolate, Table 2 prints no unit, test range 0.0156 to 64 μg/mL

SMILES | MIC (XDR-TB clinical isolates; [2]) | MIC (XDR-TB clinical isolates; [3]) | MIC (MDR-TB clinical isolates; [4]) | MIC (MDR-TB clinical isolates; [5]) | MIC (MDR-TB clinical isolates; [6]) | MIC (MDR-TB clinical isolates; [7]) | MIC (M. tuberculosis H37Rv) | MIC against H37Rv, MIC in combo. (M. tuberculosis H37Rv) | also measured
NCC[C@H](O)C(=O)N[C@@H]1C[C@H](N)[C@@H](O[C@H]2O[C@H](CN)[C@@H](O)[C@H](O)[C@H]2O)[C@H](O)[C@H]1O[C@H]1O[C@H](CO)[C@@H](O)[C@H](N)[C@H]1O [AMK, amikacin] | 64 µg/mL (≈ 109 µM) | 64 µg/mL (≈ 109 µM) |  |  |  |  |  |  | 
NNC(=O)c1ccncc1 [INH, isoniazid] | 16 µg/mL (≈ 117 µM) | 1 µg/mL (≈ 7.29 µM) | 8 µg/mL (≈ 58.3 µM) | 1 µg/mL (≈ 7.29 µM) | 4 µg/mL (≈ 29.2 µM) | 1 µg/mL (≈ 7.29 µM) | 0.03 µg/mL | 0.01 µg/mL | MIC [1]: 0.47 µg/mL (≈ 3.43 µM); MIC (Mycobacterium avium): 16 µg/mL (≈ 117 µM); IC50 (Vero cells): > 100 µg/mL
COc1c(N2C[C@@H]3CCCN[C@@H]3C2)c(F)cc2c(=O)c(C(=O)O)cn(C3CC3)c12 [MOX, moxifloxacin] |  |  |  |  |  |  | 0.037 µg/mL | 0.021 µg/mL | 
CC[C@@H](CO)NCCN[C@@H](CC)CO [EMB, ethambutol] | 16 µg/mL (≈ 78.3 µM) | 16 µg/mL (≈ 78.3 µM) | 4 µg/mL (≈ 19.6 µM) | 2 µg/mL (≈ 9.79 µM) | 4 µg/mL (≈ 19.6 µM) | 8 µg/mL (≈ 39.2 µM) |  |  | 
CC(=O)NC[C@H]1CN(c2ccc(N3CCOCC3)c(F)c2)C(=O)O1 [LZD, Linezolid] |  |  |  |  |  |  | 0.145 µg/mL | 0.1 µg/mL | 
C[C@H]1COc2c(N3CCN(C)CC3)c(F)cc3c(=O)c(C(=O)O)cn1c23 [LVFX, levo-ofloxacin] |  |  |  |  |  |  |  |  | MIC, XDR-TB strain X15 (XDR-TB clinical isolates; [8]): 4 µg/mL (≈ 11.1 µM); MIC, XDR-TB strain X17 (XDR-TB clinical isolates; [8]): 32 µg/mL (≈ 88.6 µM)

— article PMC4942819 (Scientific Reports, 2016)
